What was measured:
Assay type in all cases: in vivo
[1] = system: Chilo suppressalis (Striped Rice Stemborer); assay: Activity against Chilo suppressalis (striped rice stemborer), treated artificial diet; settings: 144 h, application rate 200 ppm, L2 larvae, 6 days after infestation
Method in brief: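 Artificial diet treated with aqueous test solutions made from 10,000 ppm DMSO stocks, dried, then infested with L2 larvae, 6-8 per well. Mortality, anti-feeding effect and growth inhibition scored versus untreated samples 6 days after infestation; control counted when any one category exceeds the untreated sample.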

[2] = system: Diabrotica balteata (Corn Root Worm); assay: Activity against Diabrotica balteata (corn root worm), sprayed maize sprouts on agar; settings: 96 h, application rate 200 ppm, L2 larvae, 4 days after infestation, read-out: effect in at least one of the two categories (mortality or growth inhibition)
Description: Example B2: Activity Against Diabrotica balteata (Corn Root Worm)
Maize sprouts placed onto an agar layer in 24-well microtiter plates were treated with aqueous test solutions prepared from 10,000 ppm DMSO stock solutions by spraying. After drying, the plates were infested with L2 larvae (6 to 10 per well). The samples were assessed for mortality and growth inhibition in comparison to untreated samples 4 days after infestation.

[3] = system: Plutella xylostella (Diamond Back Moth); assay: Activity against Plutella xylostella (diamond back moth), treated artificial diet; settings: 192 h, application rate 200 ppm, eggs, 8 days after infestation, read-out: effect in at least one of the two categories (mortality or growth inhibition)
Method in brief: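 Artificial diet treated with aqueous test solutions made from 10,000 ppm DMSO stocks, dried, then infested with Plutella eggs. Mortality and growth inhibition scored against untreated samples 8 days after infestation.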

[4] = system: Myzus persicae (Green Peach Aphid); assay: Activity against Myzus persicae (green peach aphid), feeding/contact activity; settings: 144 h, application rate 200 ppm, mixed ages, 6 days after infestation
Description: Example B6: Activity Against Myzus persicae (Green Peach Aphid) Feeding/Contact Activity
Sunflower leaf discs were placed onto agar in a 24-well microtiter plate and sprayed with aqueous test solutions prepared from 10,000 ppm DMSO stock solutions. After drying, the leaf discs were infested with an aphid population of mixed ages. The samples were assessed for mortality 6 days after infestation.

[5] = system: Myzus persicae (Green Peach Aphid); assay: Activity against Myzus persicae (green peach aphid), systemic activity; settings: 144 h, test rate 24 ppm, roots of pea seedlings in test solution, 6 days
Description: Example B8: Activity Against Myzus persicae (Green Peach Aphid) Systemic Activity
Roots of pea seedlings infested with an aphid population of mixed ages were placed directly into aqueous test solutions prepared from 10,000 ppm DMSO stock solutions. The samples were assessed for mortality 6 days after placing seedlings into test solutions.

[6] = system: Spodoptera littoralis (Egyptian Cotton Leaf Worm); assay: Activity against Spodoptera littoralis (Egyptian cotton leaf worm), sprayed cotton leaf discs; settings: foliar, 72 h, application rate 200 ppm, L1 larvae, 3 days after infestation
Method in brief: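 Leaf discs on agar were sprayed with aqueous solutions prepared from 10,000 ppm DMSO stock, dried, then infested with five L1 larvae. Mortality, anti-feeding and growth inhibition were scored against untreated discs 3 days after infestation. Control was recorded when any one category exceeded the untreated sample.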

[7] = system: Diabrotica balteata (Corn Root Worm); assay: Activity against Diabrotica balteata (corn root worm), corn seedlings on filter paper in cups; settings: 120 h, application rate 3 ppm, L2 larva, 5 days after treatment, read-out: effect in at least one of the two categories (mortality or growth inhibition)
Description: Example B12: Activity Against Diabrotica Balteata (Corn Root Worm)
Three corn seedlings were placed on wetted filter paper in plastic cups, and 3 ml of diluted test solutions were pipetted onto them. The cups were infested with 10 L2 larva and checked for mortality and growth regulation 5 days after treatment.

[8] = system: Tetranychus urticae (Two-Spotted Spider Mite); assay: Activity against Tetranychus urticae (two-spotted spider mite), sprayed bean leaf discs; settings: foliar, 192 h, application rate 200 ppm, mixed population (mobile stages), 8 days after infestation
Description: Example B9: Activity Against Tetranychus urticae (Two-Spotted Spider Mite)
Bean leaf discs on agar in 24-well microtiter plates were sprayed with aqueous test solutions prepared from 10,000 ppm DMSO stock solutions. After drying the leaf discs were infested with a mite population of mixed ages. The samples were assessed for mortality on mixed population (mobile stages) 8 days after infestation.

[9] = system: Euschistus heros (Neotropical Brown Stink Bug); assay: Activity against Euschistus heros (neotropical brown stink bug), sprayed soybean leaves; settings: 120 h, application rate 200 ppm, N2 nymphs, 5 days after infestation, read-out: effect in at least one of the two categories (mortality or growth inhibition)
Description: Example B3: Activity Against Euschistus heros (Neotropical Brown Stink Bug)
Soybean leaves on agar in 24-well microtiter plates were sprayed with aqueous test solutions prepared from 10,000 ppm DMSO stock solutions. After drying the leaves were infested with N2 nymphs. The samples were assessed for mortality and growth inhibition in comparison to untreated samples 5 days after infestation.

[10] = system: Bemisia tabaci (Cotton White Fly); assay: Activity against Bemisia tabaci (cotton white fly), sprayed cotton leaf discs; settings: foliar, 144 h, application rate 200 ppm, adult white flies, 6 days after incubation
Description: Example B1: Activity Against Bemisia tabaci (Cotton White Fly)
Cotton leaf discs were placed on agar in 24-well microtiter plates and sprayed with aqueous test solutions prepared from 10,000 ppm DMSO stock solutions. After drying the leaf discs were infested with adult white flies. The samples were checked for mortality 6 days after incubation.

[11] = system: Carpocapsa (Cydia) Pomonella (Codling Moth); assay: Activity against Carpocapsa (Cydia) pomonella (codling moth), sprayed diet cubes; settings: 336 h, application rate 12.5 ppm, L1 larvae, 14 days after infestation, read-out: effect in at least one of the two categories (mortality or growth inhibition)
Method in brief: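 Paraffin-coated diet cubes were sprayed with test solutions at 12.5 ppm, dried, and infested with one L1 larva each (10 replicates). After incubation at 26–27 °C, mortality and growth inhibition were scored 14 days after infestation.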

[12] = system: Frankliniella occidentalis (Western Flower Thrips); assay: Activity against Frankliniella occidentalis (western flower thrips), sprayed sunflower leaf discs; settings: foliar, 168 h, application rate 200 ppm, population of mixed ages, 7 days after infestation
Description: Example B4: Activity Against Frankliniella occidentalis (Western Flower Thrips)
Sunflower leaf discs were placed on agar in 24-well microtiter plates and sprayed with aqueous test solutions prepared from 10,000 ppm DMSO stock solutions. After drying the leaf discs were infested with a Frankliniella population of mixed ages. The samples were assessed for mortality 7 days after infestation.

CCS(=O)(=O)c1c(N2Cc3ncc(C(F)(F)F)cc3C2=O)nc2ccc(NC(C)=O)cn12 [Compound P36, N-[3-ethylsulfonyl-2-[5-oxo-3-(trifluoromethyl)-7H-pyrrolo[3,4-b]pyridin-6-yl]imidazo[1,2-a]pyridin-6-yl]acetamide]
≥ 80%: percent control (mortality, anti-feedant effect or growth inhibition) at 200 ppm [1] | percent effect (mortality or growth inhibition) at 200 ppm [2] | percent effect (mortality or growth inhibition) at 200 ppm [3] | mortality at 200 ppm [4] | mortality at 24 ppm [5] | percent control (mortality, anti-feedant effect or growth inhibition) at 200 ppm [6]

CCS(=O)(=O)c1c(N2Cc3ncc(C(F)(F)F)cc3C2=O)nc2ccc(C(C)(C)C#N)cn12 [Compound P35, 2-[3-ethylsulfonyl-2-[5-oxo-3-(trifluoromethyl)-7H-pyrrolo[3,4-b]pyridin-6-yl]imidazo[1,2-a]pyridin-6-yl]-2-methyl-propanenitrile]
≥ 80%: percent effect (mortality or growth inhibition) at 3 ppm [7] | percent control (mortality, anti-feedant effect or growth inhibition) at 200 ppm [1] | mortality at 200 ppm [8] | percent effect (mortality or growth inhibition) at 200 ppm [9] | percent effect (mortality or growth inhibition) at 200 ppm [2] | percent effect (mortality or growth inhibition) at 200 ppm [3] | mortality at 200 ppm [10] | mortality at 200 ppm [4] | percent control (mortality, anti-feedant effect or growth inhibition) at 200 ppm [6] | percent effect (mortality or growth inhibition) at 12.5 ppm [11] | mortality at 200 ppm [12]

CCS(=O)(=O)c1c(N2Cc3ncc(C(F)(F)F)cc3C2=O)nc2cc(OC)ccn12 [Compound P13, 6-(3-ethylsulfonyl-7-methoxy-imidazo [1,2-a]pyridin-2-yl)-3-(trifluoromethyl)-7H-pyrrolo[3,4-b] pyridin-5-one]
≥ 80%: percent effect (mortality or growth inhibition) at 200 ppm [2] | percent effect (mortality or growth inhibition) at 200 ppm [3] | mortality at 200 ppm [4] | mortality at 24 ppm [5] | percent control (mortality, anti-feedant effect or growth inhibition) at 200 ppm [6]

CCS(=O)(=O)c1c(N2Cc3ncc(C(F)(F)F)cc3C2=O)nc2cc(C)ccn12 [Compound P23, 6-(3-ethylsulfonyl-7-methyl-imidazo[1,2-a]pyridin-2-yl)-3-(trifluoromethyl)-7H-pyrrolo[3,4-b]pyridin-5-one]
≥ 80%: percent control (mortality, anti-feedant effect or growth inhibition) at 200 ppm [1] | percent effect (mortality or growth inhibition) at 200 ppm [2] | percent effect (mortality or growth inhibition) at 200 ppm [3] | mortality at 200 ppm [4] | mortality at 24 ppm [5] | percent control (mortality, anti-feedant effect or growth inhibition) at 200 ppm [6]

From patent US12696901B2, “Pesticidally active heterocyclic derivatives with sulfur containing substituents” (SYNGENTA CROP PROTECTION AG, priority 2020, dated 2026)
